Measurements published in PubChem BioAssay (NCI).
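A five-concentration, 48-hour dose response in 96-well plates underlies each endpoint, interpolated linearly between surrounding concentrations. The concentration for full growth arrest is given as TGI.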

Experiments:
Test in all cases: NCI anticancer screen, dose series, 48 h
T-47D breast = test system: T-47D breast
UACC-62 melanoma = test system: UACC-62 melanoma
MALME-3M melanoma = test system: MALME-3M melanoma
LOX IMVI melanoma = test system: LOX IMVI melanoma
SW-620 colon = test system: SW-620 colon
NCI-H226 lung = test system: NCI-H226 lung
PC-3 prostate = test system: PC-3 prostate
IGROV1 ovarian = test system: IGROV1 ovarian
MDA-MB-435 = test system: MDA-MB-435
HCT-116 colon = test system: HCT-116 colon
OVCAR-5 ovarian = test system: OVCAR-5 ovarian
DU-145 prostate = test system: DU-145 prostate
HT29 colon = test system: HT29 colon
OVCAR-3 ovarian = test system: OVCAR-3 ovarian
OVCAR-4 ovarian = test system: OVCAR-4 ovarian
UO-31 renal = test system: UO-31 renal
NCI-H23 lung = test system: NCI-H23 lung
RPMI-8226 leukemia = test system: RPMI-8226 leukemia
U251 CNS = test system: U251 CNS
UACC-257 melanoma = test system: UACC-257 melanoma
SK-OV-3 ovarian = test system: SK-OV-3 ovarian
SK-MEL-5 melanoma = test system: SK-MEL-5 melanoma
SK-MEL-2 melanoma = test system: SK-MEL-2 melanoma
HCC-2998 colon = test system: HCC-2998 colon
OVCAR-8 ovarian = test system: OVCAR-8 ovarian
SF-268 CNS = test system: SF-268 CNS
SK-MEL-28 melanoma = test system: SK-MEL-28 melanoma
CAKI-1 renal = test system: CAKI-1 renal
BT-549 breast = test system: BT-549 breast
NCI-H460 lung = test system: NCI-H460 lung
TK-10 renal = test system: TK-10 renal
SN12C renal = test system: SN12C renal
KM12 colon = test system: KM12 colon
A498 renal = test system: A498 renal
A549 NSCLC = test system: A549 NSCLC
COLO 205 colon = test system: COLO 205 colon
HL-60(TB) leukemia = test system: HL-60(TB) leukemia
HS 578T breast = test system: HS 578T breast
CCRF-CEM leukemia = test system: CCRF-CEM leukemia
HOP-62 NSCLC = test system: HOP-62 NSCLC
RXF 393 renal = test system: RXF 393 renal
NCI-H522 lung = test system: NCI-H522 lung
MDA-MB-231 breast = test system: MDA-MB-231 breast
ACHN renal = test system: ACHN renal
NCI/ADR-RES ovarian = test system: NCI/ADR-RES ovarian
EKVX NSCLC = test system: EKVX NSCLC
SR leukemia = test system: SR leukemia
HCT-15 colon = test system: HCT-15 colon
SF-295 CNS = test system: SF-295 CNS
786-0 renal = test system: 786-0 renal
M14 melanoma = test system: M14 melanoma
MCF7 breast = test system: MCF7 breast
SNB-75 CNS = test system: SNB-75 CNS
SF-539 CNS = test system: SF-539 CNS
K-562 leukemia = test system: K-562 leukemia
SNB-19 CNS = test system: SNB-19 CNS

Measured: TGI

CN(C)CCn1c(CO)nc2c1c(=O)n(C)c(=O)n2C
> 100 µM: all assays above
